Numbers after ± are expanded uncertainties.
Key:
[1] = refractive index (Na D-line) (dimensionless); details: 298.15 K; 101.33 kPa; Liquid; Standard Abbe refractometry
[2] = 298.15 K; 101.33 kPa; Liquid; Pycnometric method

refractive index [1] | mass density [2] | SMILES
1.3325 ± 0.0004 |  | O [water]
1.3967 ± 0.0004 | 805.2 ± 0.3 kg/m3 | CCCCO [butan-1-ol]
1.3789 ± 0.0004 | 957.8 ± 0.3 kg/m3 | COCOCOC [2,4,6-trioxaheptane]
